In patent US20250333377A1, “SOLID FORM OF NAPHTHYLAMINE MITOPHAGY INDUCER, AND PREPARATION METHOD THEREFOR, PHARMACEUTICAL COMPOSITION THEREOF AND USE THEREOF” (HANGZHOU PHECDAMED CO., LTD., priority 2023, published 2025):

Assay: Hygroscopicity (vapor sorption analyser, DVS)
Format: physicochemical
Conditions: 90% RH, 25° C.
Method: Single crystalline sample of compound TJ01-013 is tested using a Waters vaporsorption analyser. Taking a dry weighing tray, and laying a single sample of crystal form flat in the weighing tray, and the volume of the loaded samples is about ⅓ to ⅔ of that of the weighing tray. Instrument parameters are set as follows: temperature: 25° C.; equilibrium: dm/dt=0.01%/min (minimum time: 10 minutes, and maximum time: 180 minutes); drying: drying 120 minutes under 0% RH; RH (%) testing gradient: 10%; RH (%) test gradient range: 0%-90%-0%.

Compound	Percentage weight gain by moisture absorption [%]
O=C(O)C[S+]([O-])c1cc(NS(=O)(=O)c2ccc(Br)cc2)c2ccccc2c1O (stereo not drawn) [Embodiment 5]	2.655
O=C(O)C[S+]([O-])c1cc(NS(=O)(=O)c2ccc(Br)cc2)c2ccccc2c1O (stereo not drawn) [Embodiment 6]	7.275
O=C(O)C[S+]([O-])c1cc(NS(=O)(=O)c2ccc(Br)cc2)c2ccccc2c1O (stereo not drawn) [Embodiment 7]	2.313
O=C(O)C[S+]([O-])c1cc(NS(=O)(=O)c2ccc(Br)cc2)c2ccccc2c1O (stereo not drawn) [Embodiment 9]	0.7884
O=C(O)C[S+]([O-])c1cc(NS(=O)(=O)c2ccc(Br)cc2)c2ccccc2c1O (stereo not drawn) [Embodiment 10]	0.2033
O=C(O)C[S+]([O-])c1cc(NS(=O)(=O)c2ccc(Br)cc2)c2ccccc2c1O (stereo not drawn) [Embodiment 11]	1.897
O=C(O)C[S+]([O-])c1cc(NS(=O)(=O)c2ccc(Br)cc2)c2ccccc2c1O (stereo not drawn) [Embodiment 12]	6.026
O=C(O)C[S+]([O-])c1cc(NS(=O)(=O)c2ccc(Br)cc2)c2ccccc2c1O (stereo not drawn) [Embodiment 13]	0.439

Same assay, conditions: according to Table 7, 90% RH

Compound	Hygroscopicity (in words)
O=C(O)C[S+]([O-])c1cc(NS(=O)(=O)c2ccc(Br)cc2)c2ccccc2c1O (stereo not drawn) [Embodiment 5]	slightly hygroscopic
O=C(O)C[S+]([O-])c1cc(NS(=O)(=O)c2ccc(Br)cc2)c2ccccc2c1O (stereo not drawn) [Embodiment 7]	slightly hygroscopic
O=C(O)C[S+]([O-])c1cc(NS(=O)(=O)c2ccc(Br)cc2)c2ccccc2c1O (stereo not drawn) [Embodiment 9]	slightly hygroscopic
O=C(O)C[S+]([O-])c1cc(NS(=O)(=O)c2ccc(Br)cc2)c2ccccc2c1O (stereo not drawn) [Embodiment 10]	slightly hygroscopic
O=C(O)C[S+]([O-])c1cc(NS(=O)(=O)c2ccc(Br)cc2)c2ccccc2c1O (stereo not drawn) [Embodiment 11]	slightly hygroscopic
O=C(O)C[S+]([O-])c1cc(NS(=O)(=O)c2ccc(Br)cc2)c2ccccc2c1O (stereo not drawn) [Embodiment 13]	slightly hygroscopic

Assay: Crystal form conversion (heat treatment, suspension competition test, DSC analysis)
Format: physicochemical
Conditions: equal amounts mixed, RT/50, magnetic stirring ~1000 rpm, about 20 hours; listed as crystal form A
Description: The mutual conversion relationship among the A, B, C, D crystal forms of the sodium salt is further studied in this embodiment by heat treatment under nitrogen protection and suspension competition test.
However, the methods of heating, suspension pulping as well as grinding can not study the thermodynamic conversion relationship between crystal form A and crystal form D. In order to further study the thermodynamic conversion relationship of crystal form A and crystal form D, analyzed from the DSC pattern, the DSC of crystal form A is shown in FIG. 2, and the DSC of crystal form D is shown in FIG. 11, the melting point of crystal form A is higher than that of crystal form D, whereas the enthalpy of melting of crystal form A is much lower than that of crystal form D. It may be judged from the thermodynamic stability relationship table that if TA>TD, ΔHf, A>ΔHf, D, crystal form A and D is a univariate relationship, crystal form A is stable, if TA>TD, ΔHf, A<ΔHf, D, crystal forms A and D are reciprocal relationships, if the temperature is higher than the transcrystallization temperature, crystal form A is stable, and if the temperature is lower than the transcrystallization temperature, crystal form D is stable.

Compound	Crystal form conversion / relative stability in suspension competition test
O=C(O)C[S+]([O-])c1cc(NS(=O)(=O)c2ccc(Br)cc2)c2ccccc2c1O (stereo not drawn) [Embodiment 1]	more stable than crystal form B, C

Same assay, conditions: equal amounts mixed, RT/50, magnetic stirring ~1000 rpm, about 20 hours; listed as crystal form B

Compound	Crystal form conversion / relative stability in suspension competition test
O=C(O)C[S+]([O-])c1cc(NS(=O)(=O)c2ccc(Br)cc2)c2ccccc2c1O (stereo not drawn) [Embodiment 2]	able to be converted into crystal form A, D

Same assay, conditions: equal amounts mixed, RT/50, magnetic stirring ~1000 rpm, about 20 hours; listed as crystal form C

Compound	Crystal form conversion / relative stability in suspension competition test
O=C(O)C[S+]([O-])c1cc(NS(=O)(=O)c2ccc(Br)cc2)c2ccccc2c1O (stereo not drawn) [Embodiment 3]	able to be converted into crystal form A, D

Same assay, conditions: heating to 106° C. and then cooling to room temperature, nitrogen protection

Compound	Crystal form conversion on heat treatment
O=C(O)C[S+]([O-])c1cc(NS(=O)(=O)c2ccc(Br)cc2)c2ccccc2c1O (stereo not drawn) [Embodiment 2]	converted into crystal form C
